In patent publication US12064425B2, “Compositions and methods for targeting a viral infection” (priority 2018, dated 2024):
Entries after “also recorded” stand apart in the source; their conditions may differ. Like-named read-outs stand apart in the source and are kept apart here.

Legend:
[1] = biological target: HIV-1 Env (Human immunodeficiency virus type 1, UniProt Q71014)
[2] = test system: 2F5 Fab; assay: SPR analysis of compound binding to 2F5 Fab
[3] = test system: gp41-inter binding to 2F5 Fab; design: species or system HIV-1
[4] = test system: gp41-inter binding to 240D Fab; design: species or system HIV-1
[5] = test system: HIV-1 Env pseudoviruses; format: cell-based
[6] = biological target: gp41-inter (Human immunodeficiency virus type 1, UniProt Q71014); format: binding, HIV-1
[7] = biological target: 92UG037.8 HIV-1 Env W666A (Human immunodeficiency virus type 1, UniProt Q71014, W659A); format: cell-based
[8] = test system: Env-expressing cells, CD4- and CCR5-expressing cells
[9] = test system: TZM.bl cells

## Cc1cc(N)c2ccccc2n1 [4-aminoquinaldine]
[1]
  activity in blocking HIV-1 Env mediated cell-cell fusion (in words): no activity

## Nc1cc[n+](CCCCCCCCCC[n+]2ccc(N)c3ccccc32)c2ccccc12 [Compound S2C1]
[1]
  inhibition potency in the cell-cell fusion assay compared to dequalinium: significant decreases in potency

## Nc1c2c([n+](CCCCCCCCCC[n+]3c4c(c(N)c5ccccc53)CCC4)c3ccccc13)CCC2 [Compound S2C3]
[2]
  binding to 2F5: no binding
[3]
  competition with 2F5 for binding to gp41-inter: competed with 2F5 for binding to gp41-inter
[4]
  competition with 240D Fab for binding to gp41-inter: not with a cluster I antibody, 240D Fab
[5]
  potency of inhibition of viral infectivity compared to dequalinium: improvement in potency
[1]
  inhibition potency in the cell-cell fusion assay compared to dequalinium: significant improvement

## Nc1cc[n+](CCCCCCCCCC[n+]2ccc(N)c3cc(Br)ccc32)c2ccc(Br)cc12 [Compound S2C7]
[1]
  inhibition potency in the cell-cell fusion assay compared to dequalinium: modestly improved potency

## Cc1cc(N)cc[n+]1CCCCCCCCCC[n+]1ccc(N)cc1C [Compound S2C9]
[1]
  inhibition potency in the cell-cell fusion assay compared to dequalinium: significant decreases in potency

## c1ccc2c(c1)ccc[n+]2CCCCCCCCCC[n+]1cccc2ccccc21 [Compound S2C10]
[6]
  binding to gp41-inter (in words): no binding
[1]
  inhibition potency in the cell-cell fusion assay compared to dequalinium: significant decreases in potency

## Cc1cc(N)c2ccccc2[n+]1CCCCCCCCCC[n+]1c(C)cc(N)c2ccccc21 [dequalinium, quinolinium,1,1′-(1,10-decanediyl)-bis(4-amino-2-methyldiiodide)]
[2]; SPR
  binding to 2F5: no binding
[5]
  inhibition of HIV-1 infectivity versus MuLV control: greater inhibition to several HIV-1 isolates
[7]
  resistance of mutant Env to inhibition of cell-cell fusion versus wildtype Env: significantly more resistant
[1]
  inhibition of cell-cell fusion mediated by Envs of primary HIV-1 isolates of different clades: can also target Envs from multiple primary HIV-1 isolates of different clades; also recorded: specifically inhibited cell-cell fusion
[8]
  cytotoxicity by an assay measuring ATP concentration: minimal level of cytotoxicity
[9]
  cytotoxicity in the viral infectivity assay: more cytotoxicity than in the cell-cell fusion assay
